From patent publication US20250207173A1, “REPORTER CELL FOR ASSESSING DDX3 HELICASE ACTIVITY” (Nanyang Technological University, priority 2023, published 2025) come the findings set out here.

In one series the test system is DDX3. Nature of the series: ICD-Helicase luciferase reporter assay (Rac1-FLuc / DvL2-FLuc reporter plasmids) in 293T cells. The series is classed as cell-based, human. The following applies: for luciferase (luminescent) signals of Rac1-FLuc or DvL2-FLuc reporter cells: 293T cells transfected with Rac1-FLuc or DvL2-FLuc reporter plasmids, RK-33 0.5 to 2 μM vs vehicle (DMSO), cycloheximide as inhibitory control. On the procedure:
A total of 1.2×10^5 sgCTL or sgDDX3X reporter cells (Rac1-FLuc or DvL2-FLuc) were seeded into wells of a 24-well plate to allow cells to adhere for 24 h. Cells were pre-treated with increasing concentrations of a non-specific DDX3 inhibitor, RK-33 (0.5 μM, 1 μM, or 2 μM) for 3 h before transiently expressing the reporter plasmids into sgCTL and sgDDX3X cells for 16 h. Half of the cells were lysed in 1× cell culture lysis buffer (Promega #E1500) and bioluminescence was measured on a white bottom 96-well plate using luciferase assay system (Promega #E4030) by performing 2 sec measurement delay followed by a 10 sec measurement read. The remaining half of the cells were processed on flow-cytometry to determine the percentage of AcGFP^+ cells, to account for variation in transfection efficiency. […] Cycloheximide was used as a positive control for translational inhibition. Data represent three independent experiments and values in the bars are mean±SEM. *, p<0.05; ****, p<0.0001; ns, non-significant.
Cell transfection: 293T cells were seeded in 12 well plate (1.5×10^5 cells per well) a day prior to transfection. Cells were transfected with 1 μg of plasmids using Lipofectamine 2000 (ThermoFisher Scientific #11668019) as per manufacturer's recommendations.
Luciferase assay: Cells were lysed in luciferase cell culture lysis buffer (Promega #E1500) before measuring bioluminescence in a clear bottom 96-well plate using luciferase assay system (Promega #E4030) as per manufacturer's instructions. Relative luciferase activity was determined by subtracting luminescence values to blank and normalizing to untreated samples. Cycloheximide (Sigma #01810) was used as a positive control for translation inhibition at 1 μg/mL and RK-33 (Selleck #S8246) was used as a positive control for chemical inhibition of DDX3 at 3 μM.
The helicase function of the DDX3X and DDX3Y proteins regulates mRNA translation by unwinding of the complex 5′ untranslated region (5′-UTR) secondary structure. Two unique 5′-UTR structures were designed, Rac1 5′-UTR and DvL2 5′-UTR (i.e. short DVL2), known to be regulated by DDX3X and DDX3Y. The 5′-UTR segments were placed upstream of the luciferase gene (from the firefly Photinus pyralis) driven by a constitutively active human cytomegalovirus promoter (FIG. 1A-E). Luciferase emits bioluminescence signals proportional to its levels of expression, which served as a readout for helicase unwinding activity in ICD-Helicase assays. The reporter plasmids (Rac1-Fluc or DvL2-Fluc) were then transiently transfected into 293T cells. A transfection efficiency of more than 80% was obtained in all the experiments (FIG. 2). The selection of this cell line was for three main reasons. […] Second, 293T cells can tolerate knock-out (KO) or nearly complete knock-down of DDX3X expression. […]
(A reporter such as luciferase makes a cellular process visible.)

Series [1] deals with 293T cells. As to the kind of experiment: MTS-based viability assay of reporter cells. Format: cell-based. The following applies: 293T reporter cells (sgCTL and sgDDX3X); RK-33 0.5, 1 or 2 μM; normalized against vehicle (DMSO). On the procedure: (§1) Staurosporine (STS) was used as a positive kill control. […] Cells were treated with STS as a kill control. Bar chart represents mean±SEM of 3 independent experiments.
A general note: Tetrazolium assays rely on reduction of a dye to a coloured formazan, in cell work by metabolically active cells.

The subject of series [2] is 293T cells. Nature of the series: Annexin V-FITC apoptosis/cell death assay. The series is classed as cell-based, human. To be noted: RK-33 treatment. As to the method:
as §1

Entries after “also recorded” stand apart in the source; their conditions may differ.

Take RK-33: the “luciferase (luminescent) signals of Rac1-FLuc or DvL2-FLuc reporter cells” value in the series with DDX3 is listed as “significantly inhibited; also recorded: dose-dependently inhibited”. Besides, the luciferase activity entry in the series on DDX3 (sgCTL 293T cells with normal endogenous DDX3, RK-33 0.5, 1 or 2 μM, 3 h pre-treatment) is “dose-dependent reduction in luciferase activity”. The “luciferase activity (response to inhibitor)” value in the series with DDX3 (sgDDX3X (DDX3X knock-out) 293T cells expressing Rac1-FLuc or DvL2-FLuc construct, RK-33 0.5, 1 or 2 μM) is listed as “did not respond”. In the series with 293T cells [1], the cell viability entry was “no major change in cell viability”. In addition, the “induction of apoptosis/cell death” value with 293T cells [2] is reported as “no major change in cell viability or induction of apoptosis/cell death”.

As for `C[C@@H]1C[C@@H]([C@H](O)CC2CC(=O)NC(=O)C2)C(=O)[C@@H](C)C1` [cycloheximide], in the series on DDX3, the “luciferase (luminescent) signals of Rac1-FLuc or DvL2-FLuc reporter cells” value was “significantly inhibited”.
